Source: patent US8741350B2, “Taste masked pharmaceutical composition” (Boehringer Ingelheim Vetmedica GmbH, priority 2011, dated 2014)
Read-outs that look alike come from different tables or passages of the source.

Tests used:
[1] = Water solubility (statement); assay type: physicochemical
[2] = background statement; cited from earlier work
[3] = Lipophilicity profile (statement); assay type: physicochemical; conditions: neutral versus acidic pH

Row | water solubility in words [1] | SMILES | water solubility in words [2] | lipophilicity profile in words [3]
1 | water soluble | CC#CCn1c(N2CCC[C@@H](N)C2)nc2c1c(=O)n(Cc1ncccc1C#N)c(=O)n2C.Cl [1-[(3-cyano-pyridin-2-yl)methyl]-3-methyl-7-(2-butyn-1-yl)-8-[3-(R)-amino-piperidin-1-yl]-xanthine monohydrochloride] |  | 
2 |  | COc1ccc(CCN2CCC[C@H](CN3CCc4cc(OC)c(OC)cc4CC3=O)C2)cc1OC [Cilobradine] | highly water-soluble | 
3 |  | COc1ccc(CCN2CCC[C@H](CN3CCc4cc(OC)c(OC)cc4CC3=O)C2)cc1OC.Cl [cilobradine hydrochloride] | highly water-soluble | slightly more lipophilic at neutral pH values
